Laboratory results as given in patent US10167262B2, “Herbicidal substituted 3-arylpyrazoles” (FMC CORPORATION, priority 2014, dated 2019).

Experiments:
Type in all cases: in vivo
[1] = system: yellow nutsedge (Cyperus esculentus); assay: Test C pre-/postemergence greenhouse test, plant response rating 0-100; details: Postemergence; for Plant response rating, Nutsedge, Yellow: scale 0 to 100
Outline: (§1)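 Visual 0–100 control scores, taken 13 to 15 days post-application in a greenhouse, reflect treatment preemergence (seed in loam soil with sand) or postemergence (2–18 cm plants in peat moss, vermiculite medium). A dash marks no result.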

[2] = system: galium (catchweed bedstraw, Galium aparine); assay: as above; details: Postemergence; for Plant response rating, Galium: scale 0 to 100
Outline: as §1

[3] = system: winter wheat (Triticum aestivum); assay: as above; details: Postemergence; for Plant response rating, Wheat: scale 0 to 100
Outline: as §1

[4] = system: Italian ryegrass (Lolium multiflorum); assay: as above; details: Postemergence; for Plant response rating, Ryegrass, Italian: scale 0 to 100
Outline: as §1

corn (Zea mays) = assay: as above; details: Postemergence; for Plant response rating, Corn: scale 0 to 100
Outline: as §1

[5] = system: pigweed (Amaranthus retroflexus); assay: as above; details: Postemergence; for Plant response rating, Pigweed: scale 0 to 100
Outline: as §1

soybean (Glycine max) = assay: as above; details: Postemergence; for Plant response rating, Soybean: scale 0 to 100
Outline: as §1

[6] = system: blackgrass (Alopecurus myosuroides); assay: as above; details: Postemergence; for Plant response rating, Blackgrass: scale 0 to 100;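 for all read-outs here: 0 is no effect and 100 is complete control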
Outline: as §1

[7] = system: giant foxtail (Setaria faberii); assay: as above; details: Postemergence; for Plant response rating, Foxtail, Giant: scale 0 to 100
Outline: as §1

[8] = system: large (Lg) crabgrass (Digitaria sanguinalis); assay: as above; details: Postemergence; for Plant response rating, Crabgrass, Large: scale 0 to 100
Outline: as §1

[9] = system: ragweed (common ragweed, Ambrosia elatior); assay: as above; details: Postemergence; for Plant response rating, Ragweed: scale 0 to 100;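 for all read-outs here: 0 is no effect and 100 is complete control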
Outline: as §1

[10] = system: chickweed (common chickweed, Stellaria media); assay: Test C postemergence greenhouse test, plant response rating 0-100; details: for Plant response rating, Chickweed: scale 0 to 100
Outline: (§2)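 Potted in peat/vermiculite mix; postemergence application at 1–4 leaves (2–18 cm); greenhouse 13–15 d; visual score 0–100 relative to untreated plants; dash = no test result.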

wild oat (Avena fatua) = assay: as above; details: for Plant response rating, Oat, Wild: scale 0 to 100
Outline: as §2

kochia (Kochia scoparia) = assay: as above; details: for Plant response rating, Kochia: scale 0 to 100
Outline: as §2

## Fc1ccc(NN=C(c2ccccc2)c2c[nH]nc2-c2cc(Cl)cc(Cl)c2)cc1 [Compound 35]
[1]; 62 g ai/ha
  Plant response rating (0 to 100), Nutsedge, Yellow: 0
[1]; 125 g ai/ha
  Plant response rating (0 to 100), Nutsedge, Yellow: 5
[1]; 250 g ai/ha
  Plant response rating, Nutsedge, Yellow: 5
[1]; 500 g ai/ha
  Plant response rating, Nutsedge, Yellow: 5
[2]; 62 g ai/ha
  Plant response rating (0 to 100), Galium: 0
[2]; 125 g ai/ha
  Plant response rating (0 to 100), Galium: 0
[2]; 250 g ai/ha
  Plant response rating, Galium: 0
[2]; 500 g ai/ha
  Plant response rating, Galium: 5
[3]; 62 g ai/ha
  Plant response rating (0 to 100), Wheat: 0
[3]; 125 g ai/ha
  Plant response rating (0 to 100), Wheat: 0
[3]; 250 g ai/ha
  Plant response rating, Wheat: 0
[3]; 500 g ai/ha
  Plant response rating, Wheat: 0
[4]; 62 g ai/ha
  Plant response rating (0 to 100), Ryegrass, Italian: 0
[4]; 125 g ai/ha
  Plant response rating (0 to 100), Ryegrass, Italian: 0
[4]; 250 g ai/ha
  Plant response rating, Ryegrass, Italian: 0
[4]; 500 g ai/ha
  Plant response rating, Ryegrass, Italian: 0
Corn (Zea mays); 62 g ai/ha
  Plant response rating (0 to 100), Corn: 0
Corn (Zea mays); 125 g ai/ha
  Plant response rating (0 to 100), Corn: 0
Corn (Zea mays); 250 g ai/ha
  Plant response rating, Corn: 5
Corn (Zea mays); 500 g ai/ha
  Plant response rating, Corn: 5
[5]; 62 g ai/ha
  Plant response rating (0 to 100), Pigweed: 85
[5]; 125 g ai/ha
  Plant response rating (0 to 100), Pigweed: 100
[5]; 250 g ai/ha
  Plant response rating, Pigweed: 100
[5]; 500 g ai/ha
  Plant response rating, Pigweed: 100
Soybean (Glycine max); 62 g ai/ha
  Plant response rating (0 to 100), Soybean: 10
Soybean (Glycine max); 125 g ai/ha
  Plant response rating (0 to 100), Soybean: 10
Soybean (Glycine max); 250 g ai/ha
  Plant response rating, Soybean: 10
Soybean (Glycine max); 500 g ai/ha
  Plant response rating, Soybean: 10
[6]; 62 g ai/ha
  Plant response rating (0 to 100), Blackgrass: 0
[6]; 125 g ai/ha
  Plant response rating (0 to 100), Blackgrass: 0
[6]; 250 g ai/ha
  Plant response rating, Blackgrass: 0
[6]; 500 g ai/ha
  Plant response rating, Blackgrass: 0
[7]; 62 g ai/ha
  Plant response rating (0 to 100), Foxtail, Giant: 0
[7]; 125 g ai/ha
  Plant response rating (0 to 100), Foxtail, Giant: 0
[7]; 250 g ai/ha
  Plant response rating, Foxtail, Giant: 0
[7]; 500 g ai/ha
  Plant response rating, Foxtail, Giant: 5
[8]; 62 g ai/ha
  Plant response rating (0 to 100), Crabgrass, Large: 5
[8]; 125 g ai/ha
  Plant response rating (0 to 100), Crabgrass, Large: 5
[8]; 250 g ai/ha
  Plant response rating, Crabgrass, Large: 5
[8]; 500 g ai/ha
  Plant response rating, Crabgrass, Large: 5
[9]; 62 g ai/ha
  Plant response rating (0 to 100), Ragweed: 15
[9]; 125 g ai/ha
  Plant response rating (0 to 100), Ragweed: 40
[9]; 250 g ai/ha
  Plant response rating, Ragweed: 50
[9]; 500 g ai/ha
  Plant response rating, Ragweed: 55
[10]; 62 g ai/ha
  Plant response rating (0 to 100), Chickweed: 98
[10]; 125 g ai/ha
  Plant response rating (0 to 100), Chickweed: 100
[10]; 250 g ai/ha
  Plant response rating, Chickweed: 100
[10]; 500 g ai/ha
  Plant response rating, Chickweed: 100
Wild oat (Avena fatua); 62 g ai/ha
  Plant response rating (0 to 100), Oat, Wild: 0
Wild oat (Avena fatua); 125 g ai/ha
  Plant response rating (0 to 100), Oat, Wild: 0
Wild oat (Avena fatua); 250 g ai/ha
  Plant response rating, Oat, Wild: 0
Wild oat (Avena fatua); 500 g ai/ha
  Plant response rating, Oat, Wild: 0
Kochia (Kochia scoparia); 62 g ai/ha
  Plant response rating (0 to 100), Kochia: 50
Kochia (Kochia scoparia); 125 g ai/ha
  Plant response rating (0 to 100), Kochia: 55
Kochia (Kochia scoparia); 250 g ai/ha
  Plant response rating, Kochia: 90
Kochia (Kochia scoparia); 500 g ai/ha
  Plant response rating, Kochia: 95

## CCn1cc(C(=NN2CCCC2)c2ccccc2)c(-c2cc(Cl)cc(Cl)c2)n1 [Compound 37]
[1]; 62 g ai/ha
  Plant response rating (0 to 100), Nutsedge, Yellow: 10
[1]; 125 g ai/ha
  Plant response rating (0 to 100), Nutsedge, Yellow: 10
[1]; 250 g ai/ha
  Plant response rating, Nutsedge, Yellow: 10
[2]; 31 g ai/ha
  Plant response rating (0 to 100), Galium: 0
[2]; 62 g ai/ha
  Plant response rating (0 to 100), Galium: 0
[2]; 125 g ai/ha
  Plant response rating (0 to 100), Galium: 0
[2]; 250 g ai/ha
  Plant response rating, Galium: 0
[3]; 62 g ai/ha
  Plant response rating (0 to 100), Wheat: 0
[3]; 125 g ai/ha
  Plant response rating (0 to 100), Wheat: 0
[3]; 250 g ai/ha
  Plant response rating, Wheat: 0
[4]; 62 g ai/ha
  Plant response rating (0 to 100), Ryegrass, Italian: 0
[4]; 125 g ai/ha
  Plant response rating (0 to 100), Ryegrass, Italian: 0
[4]; 250 g ai/ha
  Plant response rating, Ryegrass, Italian: 0
Corn (Zea mays); 31 g ai/ha
  Plant response rating (0 to 100), Corn: 0
Corn (Zea mays); 62 g ai/ha
  Plant response rating (0 to 100), Corn: 0
Corn (Zea mays); 125 g ai/ha
  Plant response rating (0 to 100), Corn: 5
Corn (Zea mays); 250 g ai/ha
  Plant response rating, Corn: 5
[5]; 62 g ai/ha
  Plant response rating (0 to 100), Pigweed: 75
[5]; 125 g ai/ha
  Plant response rating (0 to 100), Pigweed: 80
[5]; 250 g ai/ha
  Plant response rating, Pigweed: 100
Soybean (Glycine max); 62 g ai/ha
  Plant response rating (0 to 100), Soybean: 5
Soybean (Glycine max); 125 g ai/ha
  Plant response rating (0 to 100), Soybean: 5
Soybean (Glycine max); 250 g ai/ha
  Plant response rating, Soybean: 5
[6]; 31 g ai/ha
  Plant response rating (0 to 100), Blackgrass: 0
[6]; 62 g ai/ha
  Plant response rating (0 to 100), Blackgrass: 0
[6]; 125 g ai/ha
  Plant response rating (0 to 100), Blackgrass: 0
[6]; 250 g ai/ha
  Plant response rating, Blackgrass: 0
[7]; 31 g ai/ha
  Plant response rating (0 to 100), Foxtail, Giant: 0
[7]; 62 g ai/ha
  Plant response rating (0 to 100), Foxtail, Giant: 0
[7]; 125 g ai/ha
  Plant response rating (0 to 100), Foxtail, Giant: 25
[7]; 250 g ai/ha
  Plant response rating, Foxtail, Giant: 25
[8]; 31 g ai/ha
  Plant response rating (0 to 100), Crabgrass, Large: 10
[8]; 62 g ai/ha
  Plant response rating (0 to 100), Crabgrass, Large: 10
[8]; 125 g ai/ha
  Plant response rating (0 to 100), Crabgrass, Large: 10
[8]; 250 g ai/ha
  Plant response rating, Crabgrass, Large: 10
[9]; 62 g ai/ha
  Plant response rating (0 to 100), Ragweed: 5
[9]; 125 g ai/ha
  Plant response rating (0 to 100), Ragweed: 5
[9]; 250 g ai/ha
  Plant response rating, Ragweed: 20
[10]; 31 g ai/ha
  Plant response rating (0 to 100), Chickweed: 70
[10]; 125 g ai/ha
  Plant response rating (0 to 100), Chickweed: 70
[10]; 250 g ai/ha
  Plant response rating, Chickweed: 75
Wild oat (Avena fatua); 62 g ai/ha
  Plant response rating (0 to 100), Oat, Wild: 0
Wild oat (Avena fatua); 125 g ai/ha
  Plant response rating (0 to 100), Oat, Wild: 0
Wild oat (Avena fatua); 250 g ai/ha
  Plant response rating, Oat, Wild: 0
Kochia (Kochia scoparia); 62 g ai/ha
  Plant response rating (0 to 100), Kochia: 15
Kochia (Kochia scoparia); 125 g ai/ha
  Plant response rating (0 to 100), Kochia: 15
Kochia (Kochia scoparia); 250 g ai/ha
  Plant response rating, Kochia: 35
